According to patent US12139729B2, “Neurodegenerative disorders” (priority 2013, dated 2024):
Residues, ends and D or L forms follow the SMILES beside them. No end group written: not given here.

Tests used:
[1] = molecular target: allosteric site on the α7 nicotinic-receptor (Rattus norvegicus, UniProt Q05941); test: Binding affinity for the allosteric site of the α7 nicotinic-receptor, using tests for viability
[2] = tested on: cortical networks in rat brain slices; test: Voltage-sensitive dye imaging (VSDI) of thalamocortical brain slices; format: cell-based, rat (Wistar); conditions: for T30-induced increase of rise-phase slope (velocity of propagation): n=3
Text: Using this technique the inventors can obtain comprehensive sets of data on neuronal population activity such as (a) the intensity of the response in any given area, from which (b) the spread of elicited neuronal assemblies can be measured, and from this parameter (c) the velocity of propagation of the activity wave-front from the point of initiation (d) measured as the slope of the spread. Each of these parameters have been measured independently for two experiments carried out so far: i) an investigation of the effects induced by increasing concentrations (0.5, 0.75, 1 & 5 μM) of T30 on cortical population activity and responsiveness, and 2) assessing the antagonistic effects of NBP-14 on a single, relatively high (1 uM), T30 concentration. • Technique used: voltage-sensitive dye imaging (Di-4-ANEPPS) of thalamocortical (TC) p14 rat (Wistar) brain slices. • Stimulation paradigm: 40 Hz (consistent with thalamo-cortical recurrent stimulation) paired pulse stimulation. • Perfusion paradigm: epochs carried out in two phases—for every drug perfusion (say: control, 0.1 uM T30 etc.), the new perfusion was applied and left to perfuse for 15 minutes before starting the recording period (15 minutes also), such that the drug had time to reach its actual concentration and induce its concentration-dependent effects once recording. Meaning one perfusion epoch lasted 30 minutes, with the recording only taking in account the last 15 minutes of its respective perfusion epoch. Detailed Methods Brain Slice Preparation
Male Wistar rats (14-17 day old; 15 individual animals in total) were anaesthetised using isoflurane: 10 mL 100% w/w isoflurane was applied to the cotton bed at the bottom of an anaesthesia chamber (glass box 20×15×15 cm) where rats were then placed for ˜45 seconds until onset of anaesthesia. The hind paw of each anaesthetised rat was pinched to check for appropriate depth of anaesthesia. Once anaesthesia was confirmed, rats were quickly decapitated before immersing the brain in oxygenated ice-cold artificial cerebrospinal fluid (‘slicing’ aCSF in mmol: 120 NaCl, 5 KCl, 20 NaHCO3, 2.4 CaCl2), 2 MgSO4, 1.2 KH2PO4, 10 glucose, 6.7 HEPES salt and 3.3 HEPES acid; pH: 7.1) for 7-8 minutes, the time taken to cut the brain into slices. Para-saggital sections (400 μm thick) were cut from a block of brain containing both Thalamus (VPN) and primary somato-sensory cortex (barrel field) using a Vibratome (Leica VT1000S) and transferred to a bubbler pot containing aCSF at room temperature (‘recording’ aCSF in mmol: 124 NaCl, 3.7 KCl, 26 NaHCO3, 2 CaCl2, 1.3 MgSO4, 1.3 KH2PO4 and 10 glucose; […]), which was identical to that which was used during electrophysiological recordings and VSDI. Slices were left in oxygenated (95% O2-5% CO2) ‘recording’ aCSF to recuperate for at least 1 hour before VSD staining.
Slices were placed in a dark, high humidity chamber filled with aCSF bubbling with 95% O2-5% CO2. The dye solution (4% 0.2 mM styryl dye pyridinium 4-[2-[6-(dibutylamino)-2-naphthalenyl]-ethenyl]-1-(3-sulfopropyl)hydroxide (Di-4-ANEPPS, Invitrogen, Paisley, UK) (Tominaga et al., 2000) in aCSF 46%, fetal bovine serum 46%, DMSO 3.5% and cremophore EL 0.4%) was then applied to the slices as previously described (Badin et al., 2013). When starting VSD recordings, slices were placed in the recording bath on a small piece of filter paper to keep slice alive and was weighed down appropriately using a home-made plastic grid placed atop the slice. Because of the fluorescent VSD, all of the handling of slices during and after staining with Di-4-ANEPPS was carried out in almost complete darkness in order to keep the detrimental effects of photo-toxicity and bleaching to a minimum. VPN (where stimulating electrodes were placed) was identified with respect to distance from the tip of the hippocampus and to the side of the internal capsule. […]

[3] = tested on: Amyloid Precursor Protein (APP); test: Western blot detection of full-length APP in solubilized PC12 cells; format: cell-based; conditions: 1 hour
Experimental: PC12 cells are plated with growth medium in Petri Dishes for a week in order to have enough protein to detect APP in PC12 membranes and treated for 1 hour with T30 and NBP-14 before solubilizing the protein. Once the cells have grown until 90% confluence, the growth medium is removed and cells are re-suspended in 2 ml of HBSS. The cells suspension is transferred to a 15 ml tube and centrifuge 5 minutes at 1000 rpm. Then the supernatant is discarded and the pellet is re-suspended in Lysis buffer (20 mM Tris, 137 mM NaCl, 1% Triton X-100, 2 mM EDTA; pH 8) plus protease inhibitors (1 μl:1 ml PMSF and 3 μl:1 ml Aprotinin) and triturated by using a Polytron for 10 seconds. Subsequently, the triturated pellet is distributed in 1.5 ml eppendorfs and rotated or shaken for 2 h at 4° C. […] The Bradford reagent is used to quantify the protein contained in each eppendorf. […]
The steps for electrophoresis are the following: • a) Prepare the lower and the upper acrilamide gels. The % for APP gel is 10% lower gel and 5% stacking gel. • b) Prepare 24 μl of sample at a concentration of 25 μg (determined by the Bradford Assay) (6 μl SB 4× containing β-mercaptoethanol+protein+lisis) and boil them at 100° C. for 5 minutes to denaturalize them. • c) Put the protein marker and the samples in the wells of the gel (20-30 μL). • d) Proceed to Migration: 35 mA (nearly 1 hour). […]

Chain of allosteric site on the α7 nicotinic-receptor (Q05941 23-502): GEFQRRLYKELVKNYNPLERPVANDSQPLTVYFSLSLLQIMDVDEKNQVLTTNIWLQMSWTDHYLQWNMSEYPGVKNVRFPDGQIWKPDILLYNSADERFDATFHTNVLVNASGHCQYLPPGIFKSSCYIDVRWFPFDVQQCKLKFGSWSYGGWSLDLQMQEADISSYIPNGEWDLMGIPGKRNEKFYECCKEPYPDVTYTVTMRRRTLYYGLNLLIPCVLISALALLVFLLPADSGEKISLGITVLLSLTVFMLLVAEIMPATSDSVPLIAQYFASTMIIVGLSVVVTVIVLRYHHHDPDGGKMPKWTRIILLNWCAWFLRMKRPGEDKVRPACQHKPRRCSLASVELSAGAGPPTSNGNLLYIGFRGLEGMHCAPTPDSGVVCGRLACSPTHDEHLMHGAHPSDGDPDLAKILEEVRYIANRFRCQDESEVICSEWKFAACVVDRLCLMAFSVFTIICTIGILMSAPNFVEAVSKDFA

Molecule | affinity (Table 3 feature) ([1]; ✓ = Dream Drug feature 'Nanomolar affinity') | receptor specificity (Table 3 feature) ([1]; ✓ = Dream Drug feature 'Specific action at α7 receptor') | modulatory effects of NBP-14 on its own [2] | modulatory effects of T30 on neuronal populations under NBP-14 ([2]; 300 nM NBP-14, T30 1000 nM) | T30-induced increase of rise-phase slope (velocity of propagation) ([2]; T30 1 μM + 100 nM NBP-14 perfusion) | T30-induced increase of rise-phase slope (velocity of propagation) ([2]; T30 1 μM + 300 nM NBP-14 perfusion) | levels of full length APP (control 100%) ([3]; T30 5 μM + NBP-14 0.5 μM) | binding affinity for the allosteric site on the α7 nicotinic-receptor [1] [nM] | maximum decrease in propagation speed (slope of the rise phase) ([2]; 5 μM T30) [fold] | spread of cortical assemblies ([2]; T30 0.5, 0.75, 1 μM, affected only at 5 uM) | intensity of fluorescence given off by active pixels ([2]; increasing T30 concentration (0.5-5 μM)) | levels of full length APP (control 100%) ([3]; T30 5 μM)
CSCC[C@@H]1NC(=O)[C@H](Cc2ccc(O)cc2)NC(=O)[C@H](CO)NC(=O)[C@H](CO)NC(=O)[C@H](Cc2c[nH]c3ccccc23)NC(=O)[C@H](CCCNC(=N)N)NC(=O)[C@H](Cc2c[nH]cn2)NC(=O)[C@H](Cc2ccccc2)NC(=O)[C@H](CCC(=O)O)NC(=O)[C@H](C)NC(=O)[C@H](CCCCN)NC(=O)[C@H](Cc2c[nH]c3ccccc23)NC(=O)[C@H](Cc2c[nH]cn2)NC(=O)[C@H](C(C)C)NC1=O [Cyclic T14] (cyclo(AEFHRWSSYMVHWK)) | ✓ | ✓ | inert | reduced back to control levels | slowed down | reversed back to baseline levels | 126%±1.12 |  |  |  |  | 
KAEFHRWSSYMVHWKNQFDHYSKQDRCSDL [T30, reference compound] |  |  |  |  |  |  |  | 5 | 3.5 | not significantly affected | diminishes | 67.82%±6.23
